Measurements published in US11021444B2, “Antiviral compounds” (priority 2013, dated 2021).
pEC50, pIC50: −log10 of the molar value. Read-outs that look alike come from different tables or passages of the source.

Experiments:
recombinant RSV complex = recombinant RSV complex (Human respiratory syncytial virus A, UniProt P28887); experiment: RSV Polymerase Inhibition Assay; type: biochemical
How it was run: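 Inhibition measured as reduced incorporation of radiolabel into RNA products, detected by scintillation counting. Reactions: recombinant RSV complex (10 nM), RNA oligonucleotides, Tris-HCl pH 7.5, 6 mM MgCl2, inhibitor titration, 2 h at 30 °C, EDTA stop.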

HEp-2 cells = experiment: Cytotoxicity Determination (CCK-8, without addition of virus); type: cell-based
How it was run: (§1)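 Cytotoxicity was measured by CCK-8 after 3-4 hours at 37 °C, following 5 days of uninfected exposure at 37 °C and 5% CO2. Compounds ran as duplicate 7-point 1/2 dilutions starting at 100 μM, with 1% final DMSO. HEp-2 cells had been plated at 1,500/well the day before.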

RSV replicon = experiment: microbe, parasite or virus in culture; type: cell-based; settings: human respiratory syncytial virus, read-out: EC50, the concentration of the drug required for reducing RSV replicon RNA by 50%
Method: The Renilla Luciferase Assay System (Promega, Cat. #E2820) was used to measure anti-RSV replicon activity. […] Luminescence was recorded using a Perkin Elmer multilabel counter Victor3V. EC50, the concentration of the drug required for reducing RSV replicon RNA by 50% in relation to the untreated cell control value, was calculated from the plot of percentage reductions of the optical density (OD) value against the drug concentrations using the Microsoft Excel forecast function.

[1] = system: Respiratory Syncytial Virus (RSV) long strain; experiment: microbe, parasite or virus in culture; type: cell-based; settings: human respiratory syncytial virus, Tables A and B list compounds by EC50 band
How it was run: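 CPE-reduction format: viability measured colorimetrically with CCK-8 (450 nm, 630 nm reference) after 3-4 h, following 5-day infection at 37 °C, 5% CO2. Cells were HEp-2; inoculum 100 TCID50/well; duplicate 9-point 1/3 series starting at 100 μM or 1 μM.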

[2] = Cytotoxicity Determination (CCK-8, without addition of virus); type: cell-based; settings: human, 50% cytotoxicity concentration (CC50)
How it was run: as §1

[3] = HEp-2, 120 h, read-out: 50% effective concentration (EC50), HEp-2 cells infected with RSV long strain, 5 days, CCK-8 readout
[4] = 120 h, read-out: 50% effective concentration (EC50), HEp-2 cells infected with RSV long strain, 5 days, CCK-8 readout

Sequence of recombinant RSV complex (P28887 whole entry): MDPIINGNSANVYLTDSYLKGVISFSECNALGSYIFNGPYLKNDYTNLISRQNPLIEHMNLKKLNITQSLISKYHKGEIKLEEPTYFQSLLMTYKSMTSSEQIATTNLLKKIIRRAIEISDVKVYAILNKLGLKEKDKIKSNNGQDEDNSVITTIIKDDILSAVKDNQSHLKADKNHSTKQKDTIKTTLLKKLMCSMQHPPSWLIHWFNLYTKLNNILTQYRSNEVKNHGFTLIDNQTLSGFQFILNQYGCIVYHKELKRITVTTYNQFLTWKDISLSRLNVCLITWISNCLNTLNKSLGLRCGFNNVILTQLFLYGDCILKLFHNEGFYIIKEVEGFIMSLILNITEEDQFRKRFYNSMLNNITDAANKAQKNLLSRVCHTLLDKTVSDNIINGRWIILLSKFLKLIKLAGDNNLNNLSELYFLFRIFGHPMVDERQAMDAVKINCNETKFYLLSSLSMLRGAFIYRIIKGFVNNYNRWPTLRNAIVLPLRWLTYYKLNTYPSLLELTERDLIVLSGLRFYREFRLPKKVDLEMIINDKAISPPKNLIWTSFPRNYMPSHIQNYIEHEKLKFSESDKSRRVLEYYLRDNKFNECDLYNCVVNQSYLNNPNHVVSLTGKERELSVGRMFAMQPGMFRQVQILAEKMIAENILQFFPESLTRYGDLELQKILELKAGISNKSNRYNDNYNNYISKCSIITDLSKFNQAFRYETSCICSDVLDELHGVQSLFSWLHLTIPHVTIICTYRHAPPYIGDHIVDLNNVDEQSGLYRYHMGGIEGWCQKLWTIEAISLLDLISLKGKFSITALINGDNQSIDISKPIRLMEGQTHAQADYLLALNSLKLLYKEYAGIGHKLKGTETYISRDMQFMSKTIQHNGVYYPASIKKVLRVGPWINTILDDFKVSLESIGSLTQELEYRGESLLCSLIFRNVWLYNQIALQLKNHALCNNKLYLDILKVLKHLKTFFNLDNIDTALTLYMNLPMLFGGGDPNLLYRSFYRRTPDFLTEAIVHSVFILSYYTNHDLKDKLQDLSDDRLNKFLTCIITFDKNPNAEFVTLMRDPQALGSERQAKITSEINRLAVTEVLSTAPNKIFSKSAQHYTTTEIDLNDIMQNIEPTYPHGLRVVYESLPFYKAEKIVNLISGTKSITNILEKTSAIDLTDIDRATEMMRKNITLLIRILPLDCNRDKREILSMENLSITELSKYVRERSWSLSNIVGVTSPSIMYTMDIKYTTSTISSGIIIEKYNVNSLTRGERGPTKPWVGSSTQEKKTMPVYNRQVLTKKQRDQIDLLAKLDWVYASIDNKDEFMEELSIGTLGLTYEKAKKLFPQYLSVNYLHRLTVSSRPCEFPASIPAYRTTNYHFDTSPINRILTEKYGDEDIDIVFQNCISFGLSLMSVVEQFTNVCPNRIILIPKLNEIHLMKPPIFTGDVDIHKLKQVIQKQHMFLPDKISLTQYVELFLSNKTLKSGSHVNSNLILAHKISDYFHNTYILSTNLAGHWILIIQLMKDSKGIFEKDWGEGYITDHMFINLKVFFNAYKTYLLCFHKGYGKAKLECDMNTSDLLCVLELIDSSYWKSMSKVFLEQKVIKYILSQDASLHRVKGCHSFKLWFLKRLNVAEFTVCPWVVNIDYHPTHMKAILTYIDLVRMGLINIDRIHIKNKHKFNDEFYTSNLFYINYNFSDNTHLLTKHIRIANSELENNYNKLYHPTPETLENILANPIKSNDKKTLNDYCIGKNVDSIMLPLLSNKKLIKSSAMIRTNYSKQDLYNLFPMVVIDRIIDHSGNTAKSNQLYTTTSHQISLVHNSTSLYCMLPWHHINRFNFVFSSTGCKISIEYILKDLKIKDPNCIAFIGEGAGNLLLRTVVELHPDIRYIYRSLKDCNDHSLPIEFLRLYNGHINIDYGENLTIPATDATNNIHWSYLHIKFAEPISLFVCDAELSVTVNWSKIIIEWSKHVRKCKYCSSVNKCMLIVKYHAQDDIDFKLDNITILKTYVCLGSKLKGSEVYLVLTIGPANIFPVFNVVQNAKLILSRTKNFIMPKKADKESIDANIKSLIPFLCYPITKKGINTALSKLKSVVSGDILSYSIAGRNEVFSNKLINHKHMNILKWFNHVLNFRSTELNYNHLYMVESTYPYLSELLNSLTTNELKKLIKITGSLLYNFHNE
Sequence of recombinant RSV complex (P03421 whole entry, further chain): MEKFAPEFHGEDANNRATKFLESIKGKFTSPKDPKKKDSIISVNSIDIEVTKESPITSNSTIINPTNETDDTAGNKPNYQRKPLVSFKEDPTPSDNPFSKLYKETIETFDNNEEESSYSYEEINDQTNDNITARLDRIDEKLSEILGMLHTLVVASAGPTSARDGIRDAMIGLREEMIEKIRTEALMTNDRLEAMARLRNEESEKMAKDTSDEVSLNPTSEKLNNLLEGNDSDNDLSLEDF

| SMILES | pIC50 (recombinant RSV complex) | CC50 (HEp-2 cells; human, 5 days) [µM] | pEC50 (RSV replicon) | pEC50 [1, 3] | CC50 (HEp-2 cells) [µM] | CC50 at 5 days [2] [µM] | pEC50 [1, 4] |
| --- | --- | --- | --- | --- | --- | --- | --- |
| CCC(O)(CNC(=O)c1ccc(OCCF)c(OC)c1)c1ccc(OC)c(-c2ccc(F)c(Cl)c2)n1 (single isomer, unassigned) [Compound 122b] | > 5.00 | 10 to 100 | – | – | – | – | – |
| COc1cc(C(=O)NCC(O)(c2ccc(OC)c(-c3ccc(F)c(Cl)c3)n2)C(F)(F)F)ccc1OCC(N)=O (single isomer, unassigned) [Compound 239] | – | 10 to 100 | > 6.00 | – | – | – | – |
| COc1cc(C(=O)NCC(O)(c2cc(C(C)(N)CF)cc(-c3ccc(F)cc3)n2)C(F)(F)F)ccc1OCC(N)=O (single isomer, unassigned) [Compound 655] | > 6.00 | > 100 | – | – | – | – | – |
| COc1cc(C(=O)NCC(O)(c2cc(C(C)(N)CF)cc(-c3ccc(F)cc3)n2)C(F)(F)F)ccc1OCC(N)=O (single isomer, unassigned) [Compound 656] | – | 10 to 100 | – | > 6.00 | – | – | – |
| COc1cc(C(=O)NCC(O)(c2ccc(OC)c(-c3ccc(F)c(Cl)c3)n2)C2CC2)ccc1OCCO (stereo not shown) [Compound 243] | – | 10 to 100 | – | – | – | – | – |
| COc1ccc(C(O)(CNC(=O)c2ccc(O[C@H]3CCNC3=O)c(Cl)c2)C(F)(F)F)cc1-c1ccc(F)c(Cl)c1 (stereo partly shown) [Compound 260] | – | – | – | – | 10 to 100 | – | – |
| COc1cc(C(=O)NCC(O)(c2ccc(OC)c(-c3ccc(F)c(Cl)c3)n2)C(F)F)ccc1OCC(N)=O (stereo not shown) [Compound 442] | > 6.00 | 10 to 100 | > 6.00 | > 6.00 | – | – | – |
| COc1cc(C(=O)NCC(O)(c2ccc(OC)c(-c3ccc(F)c(Cl)c3)n2)C(F)F)ccc1OCC(N)=O (stereo not shown) [Compound 447] | – | > 100 | – | – | – | – | – |
| COc1cc(C(=O)NCC(O)(c2cc(C(C)(C)NC3COC3)cc(-c3ccc(F)c(Cl)c3)n2)C(F)(F)F)ccc1OC1CC1 (stereo not shown) [Compound 577] | > 6.00 | – | > 6.00 | > 6.00 | – | 10 to 100 | – |
| COc1cc(C(=O)NCC(O)(c2cc(C(C)(C)NC(C)=N)cc(-c3ccc(F)c(Cl)c3)n2)C(F)(F)F)ccc1OC1CC1 (stereo not shown) [Compound 579] | > 6.00 | – | > 6.00 | > 6.00 | – | 10 to 100 | – |
| COc1cc(C(=O)NCC(O)(c2cc(C(C)(C)N)cc(-c3ccc(F)cc3)n2)C(F)(F)F)ccc1OCC(N)=O (stereo not shown) [Compound 580] | > 6.00 | – | > 6.00 | – | – | > 100 | > 6.00 |
| COc1cc(C(=O)NCC(O)(c2cc(C(C)(C)N)cc(-c3ccc(F)cc3)n2)C(F)(F)F)ccc1OC[C@@H](C)O (stereo partly shown) [Compound 586] | > 6.00 | – | > 6.00 | > 6.00 | – | 10 to 100 | – |
| COc1cc(C(=O)NCC(O)(c2cc(C(C)(C)N)c(OC)c(-c3ccc(F)cc3)n2)C(F)(F)F)ccc1OC1CC1 (stereo not shown) [Compound 594] | > 6.00 | – | > 6.00 | > 6.00 | – | 10 to 100 | – |
| COc1cc(C(=O)NCC(O)(c2cc(C3(N)COC3)cc(-c3ccc(F)cc3)n2)C(F)(F)F)ccc1OC1CC1 (stereo not shown) [Compound 595] | > 6.00 | – | > 6.00 | > 6.00 | – | 10 to 100 | – |
| COc1cc(C(=O)NCC(O)(c2cc(C(C)(C)N)cc(-c3ccc(F)cc3)n2)C(F)(F)F)ccc1OC1CC(O)C1 (stereo not shown) [Compound 596] | > 6.00 | – | > 6.00 | > 6.00 | – | 10 to 100 | – |
| COc1cc(C(=O)NCC(O)(c2cc(C3(N)CC3)cc(-c3ccc(F)cc3)n2)C(F)(F)F)ccc1OC[C@@H](C)O (stereo partly shown) [Compound 598] | > 6.00 | – | > 6.00 | > 6.00 | – | 10 to 100 | – |
| COc1cc(C(=O)NCC(O)(c2cc(C(C)(C)NC(C)=O)cc(-c3ccc(F)cc3)n2)C(F)(F)F)ccc1OCCO (stereo not shown) [Compound 611] | > 6.00 | – | > 6.00 | > 6.00 | – | > 100 | – |
| COc1cc(C(=O)NCC(O)(c2cc(C(C)(C)NC(C)=O)cc(-c3ccc(F)c(Cl)c3)n2)C(F)(F)F)ccc1OCC(N)=O (stereo not shown) [Compound 612] | > 6.00 | – | > 6.00 | > 6.00 | – | > 100 | – |
| COc1cc(C(=O)NCC(O)(c2cc(C(C)(N)CF)cc(-c3ccc(F)cc3)n2)C(F)(F)F)ccc1OC[C@@H](C)O (stereo partly shown) [Compound 614] | > 6.00 | – | > 6.00 | > 6.00 | – | 10 to 100 | – |
| COc1cc(C(=O)NCC(O)(c2cc(C(C)(N)CF)cc(-c3ccc(F)cc3)n2)C(F)(F)F)ccc1OCC(N)=O (stereo not shown) [Compound 615] | > 6.00 | – | > 6.00 | > 6.00 | – | > 100 | – |

| SMILES | pIC50 (recombinant RSV complex) | CC50 (HEp-2 cells; human, 5 days) [µM] | pEC50 (RSV replicon) | pEC50 [1, 3] | CC50 (HEp-2 cells) [µM] | CC50 at 5 days [2] [µM] | pEC50 [1, 4] |
| --- | --- | --- | --- | --- | --- | --- | --- |
| COc1cc(C(=O)NCC(O)(c2cc(C(C)(C)NC(C)=O)cc(-c3ccc(F)cc3)n2)C(F)(F)F)ccc1OCC(N)=O (stereo not shown) [Compound 621] | > 6.00 | – | > 6.00 | > 6.00 | – | > 100 | – |
| COc1cc(C(=O)NCC(O)(c2cc(C(C)(C)N)cc(-c3ccc(C#N)cc3)n2)C(F)(F)F)ccc1OCCO (stereo not shown) [Compound 623b] | > 6.00 | – | > 6.00 | > 6.00 | – | > 100 | – |
| COc1cc(C(=O)NC[C@](O)(c2cc(C(C)(C)N)cc(-c3ccc(C#N)cc3)n2)C(F)(F)F)ccc1OC[C@@H](C)O [Compound 624b] | > 6.00 | – | > 6.00 | > 6.00 | – | > 100 | – |
| COc1cc(C(=O)NC[C@@](O)(c2cc3c(c(-c4ccc(F)cc4)n2)OC[C@@]3(C)N)C(F)(F)F)ccc1OC[C@@H](C)O [Compound 630] | > 6.00 | – | > 6.00 | – | – | 10 to 100 | > 6.00 |
| COc1cc(C(=O)NC[C@](O)(c2cc3c(c(-c4ccc(F)cc4)n2)OCC3(C)CN)C(F)(F)F)ccc1OCCO (stereo partly shown) [Compound 633b] | > 6.00 | – | > 6.00 | > 6.00 | – | 10 to 100 | – |
| COc1cc(C(=O)NCC(O)(c2cc(C(C)(C)N)cc(-c3ccc(F)cc3)n2)C2CC2)ccc1OCCO (stereo not shown) [Compound 634] | > 6.00 | – | > 6.00 | > 6.00 | – | > 100 | – |
| COc1cc(C(=O)NCC(O)(c2cc3c(c(-c4ccc(F)cc4)n2)OCC3(C)N)C(F)(F)F)cc2cccnc12 (stereo not shown) [Compound 635] | > 6.00 | – | > 6.00 | > 6.00 | – | 10 to 100 | – |
| COc1cc(C(=O)NCC(O)(c2cc(C(C)(C)N)cc(-c3ccc(F)c(Cl)c3)n2)C(F)(F)F)ccc1OCS(N)(=O)=O (stereo not shown) [Compound 637] | > 6.00 | – | > 6.00 | 4.30 to 6.00 | – | 10 to 100 | – |
| COc1cc(C(=O)NCC(O)(c2cc3c(c(-c4ccc(F)c(Cl)c4)n2)OCC3(C)N)C(F)(F)F)ccc1OCCO (stereo not shown) [Compound 638] | > 6.00 | – | > 6.00 | > 6.00 | – | 10 to 100 | – |
| COc1cc(C(=O)NCC(O)(c2cc3c(c(-c4ccc(Cl)cc4)n2)OCC3(C)N)C(F)(F)F)ccc1OCCO (stereo not shown) [Compound 640] | > 6.00 | – | > 6.00 | – | – | 10 to 100 | > 6.00 |
| COc1cc(C(=O)NCC(O)(c2cc3c(c(-c4ccc(F)cc4)n2)OCC3(C)N)C(F)(F)F)cc2ccc(=O)[nH]c12 (stereo not shown) [Compound 642] | > 6.00 | – | > 6.00 | > 6.00 | – | 10 to 100 | – |
| COc1cc(C(=O)NCC(O)(c2cc(C(C)(C)N)cc(-c3ccc(F)cc3)n2)C(F)(F)F)cnc1OCCO (stereo not shown) [Compound 643] | > 6.00 | – | > 6.00 | > 6.00 | – | > 100 | – |
| CC(C)(N)c1cc(-c2ccc(F)cc2)nc(C(O)(CNC(=O)c2ccc(OC3CC3)c(CO)c2)C(F)(F)F)c1 (stereo not shown) [Compound 644] | > 6.00 | – | > 6.00 | > 6.00 | – | 10 to 100 | – |
| COc1cc(C(=O)NCC(O)(c2cc3c(c(-c4ccc(C(F)(F)F)cc4)n2)OCC3(C)N)C(F)(F)F)ccc1OCCO (stereo not shown) [Compound 645] | > 6.00 | – | > 6.00 | > 6.00 | – | 10 to 100 | – |
| COc1cc(C(=O)NCC(O)(c2cc3c(c(-c4ccc(Cl)cc4)n2)OCC3(C)N)C(F)(F)F)ccc1CO[C@@H](C)O (stereo partly shown) [Compound 646] | > 6.00 | – | > 6.00 | > 6.00 | – | 10 to 100 | – |
| COc1cc(C(=O)NCC(O)(c2cc([C@]3(C)CCN3)cc(-c3ccc(F)cc3)n2)C(F)(F)F)ccc1OCCO (stereo partly shown) [Compound 650] | > 6.00 | – | > 6.00 | – | – | 10 to 100 | > 6.00 |
| COc1cc(C(=O)NC[C@@](O)(c2cc3c(c(-c4ccc(F)cc4)n2)OCC3(N)CO)C(F)(F)F)ccc1OC1CC1 (stereo partly shown) [Compound 653] | > 6.00 | – | > 6.00 | > 6.00 | – | > 100 | – |
| COc1cc(C(=O)NCC(O)(c2cc3c(c(-c4ccc(F)c(F)c4)n2)OCC3(C)N)C(F)(F)F)ccc1OCCO (stereo not shown) [Compound 663] | > 6.00 | – | > 6.00 | > 6.00 | – | 10 to 100 | – |
| COc1cc(C(=O)NCC(O)(c2cc3c(c(-c4ccc(F)c(C(F)(F)F)c4)n2)OCC3(C)N)C(F)(F)F)ccc1CO[C@@H](C)O (stereo partly shown) [Compound 665] | > 6.00 | – | > 6.00 | > 6.00 | – | 10 to 100 | – |
